The assay concerns BDF1 mice, s.c. Lewis lung carcinoma, T/C %. Nature of the assay: NCI In Vivo Anticancer Drug Screen. Data for tumor model Lewis Lung Carcinoma (subcutaneous) in B6D2F1 (BDF1) mice. The method in brief:
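First, mice carry a transplantable tumor. Next, groups receive either compound or vehicle. Finally, survival or tumor dimensions in the dosed animals are divided by the corresponding control figure.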

The mark [1] stands for this setting: endpoint: median survival time, dose: 3.12 mg/kg/injection, schedule: Q01DX009 (ip), vehicle: Klucel (hydroxypropylcellulose) (HPC), higher = longer survival.
Setting [2] is: endpoint: median survival time, dose: 6.25 mg/kg/injection, schedule: Q01DX009 (ip), vehicle: Klucel (hydroxypropylcellulose) (HPC), higher = longer survival.
Setting [3] is: endpoint: mean tumor weight, dose: 50.0 mg/kg/injection, schedule: Q01DX011 (ip), vehicle: saline, higher = larger tumour.
Where [4] appears, read: endpoint: mean tumor weight, dose: 100.0 mg/kg/injection, schedule: Q01DX011 (ip), vehicle: saline, higher = larger tumour.
[5] abbreviates: endpoint: mean tumor weight, dose: 200.0 mg/kg/injection, schedule: Q01DX011 (ip), vehicle: saline, higher = larger tumour.

Structures are written as SMILES. “And” between values parts separate entries of the source, which are not always exact repeats. Identical values can stand only once. Inconclusive results are not listed.

Take `O=c1cc(-c2ccccc2)oc2cccc(O)c12`: the T/C was 73 % of control (endpoint: mean tumor weight, dose: 50.0 mg/kg/injection, schedule: Q01DX010 (ip), vehicle: saline, higher = larger tumour); 70 % of control (endpoint: mean tumor weight, dose: 100.0 mg/kg/injection, schedule: Q01DX010 (ip), vehicle: saline, higher = larger tumour); 82 % of control (endpoint: mean tumor weight, dose: 200.0 mg/kg/injection, schedule: Q01DX010 (ip), vehicle: saline, higher = larger tumour); 67 % of control (endpoint: mean tumor weight, dose: 400.0 mg/kg/injection, schedule: Q01DX010 (ip), vehicle: saline, higher = larger tumour).
In the case of `C[C@H]1C[C@H]2[C@@H]3CC[C@](O)(C(=O)CO)[C@@]3(C)C[C@H](O)[C@]2(F)[C@@]2(C)C=CC(=O)C=C12`, the T/C is, setting by setting: (endpoint: mean tumor weight, dose: 15.0 mg/kg/injection, schedule: Q01DX011 (sc), vehicle: steriod suspending solution, higher = larger tumour) 44 % of control; (endpoint: mean tumor weight, dose: 30.0 mg/kg/injection, schedule: Q01DX011 (sc), vehicle: steriod suspending solution, higher = larger tumour) 43 % of control; (endpoint: mean tumor weight, dose: 90.0 mg/kg/injection, schedule: Q01DX011 (sc), vehicle: steriod suspending solution, higher = larger tumour) 12 % of control.
In the case of `CN(Cc1cnc2nc(N)nc(N)c2n1)c1ccc(C(=O)N[C@@H](CCC(=O)O)C(=O)O)cc1`, the T/C runs as follows: (endpoint: mean tumor weight, dose: 0.5 mg/kg/injection, schedule: Q01DX011 (ip), vehicle: alkali diluted with saline, higher = larger tumour) 91 % of control; (endpoint: mean tumor weight, dose: 0.5 mg/kg/injection, schedule: Q01DX011 (ip), vehicle: carboxymethylcellulose (CMC), higher = larger tumour) 97 % of control; (endpoint: mean tumor weight, dose: 0.75 mg/kg/injection, schedule: Q01DX011 (ip), vehicle: alkali diluted with saline, higher = larger tumour) 111 % of control; (endpoint: mean tumor weight, dose: 1.0 mg/kg/injection, schedule: Q01DX011 (ip), vehicle: alkali diluted with saline, higher = larger tumour) 83 % of control; (endpoint: mean tumor weight, dose: 1.0 mg/kg/injection, schedule: Q01DX011 (ip), vehicle: carboxymethylcellulose (CMC), higher = larger tumour) 91 % of control; (endpoint: mean tumor weight, dose: 1.5 mg/kg/injection, schedule: Q01DX011 (ip), vehicle: alkali diluted with saline, higher = larger tumour) 93 % of control. The T/C is, setting by setting: (endpoint: mean tumor weight, dose: 2.0 mg/kg/injection, schedule: Q01DX011 (ip), vehicle: alkali diluted with saline, higher = larger tumour) 72 % of control; (endpoint: mean tumor weight, dose: 2.0 mg/kg/injection, schedule: Q01DX011 (ip), vehicle: carboxymethylcellulose (CMC), higher = larger tumour) 90 % of control; (endpoint: mean tumor weight, dose: 4.0 mg/kg/injection, schedule: Q01DX011 (ip), vehicle: carboxymethylcellulose (CMC), higher = larger tumour) 25 % of control; (endpoint: median survival time, dose: 0.5 mg/kg/injection, schedule: Q01DX009 (ip), vehicle: Klucel (hydroxypropylcellulose) (HPC), higher = longer survival) 107 % of control; (endpoint: median survival time, dose: 0.5 mg/kg/injection, schedule: Q01DX009 (ip), vehicle: saline with Tween-80, higher = longer survival) 89 % of control and 100 % of control; (endpoint: median survival time, dose: 1.0 mg/kg/injection, schedule: Q01DX009 (ip), vehicle: Klucel (hydroxypropylcellulose) (HPC), higher = longer survival) 112 % of control. Moreover, the T/C runs as follows: (endpoint: median survival time, dose: 1.0 mg/kg/injection, schedule: Q01DX009 (ip), vehicle: saline with Tween-80, higher = longer survival) 93 % of control; (endpoint: median survival time, dose: 1.0 mg/kg/injection, schedule: Q01DX009 (ip), vehicle: saline, higher = longer survival) 100 % of control; (endpoint: median survival time, dose: 2.0 mg/kg/injection, schedule: Q01DX009 (ip), vehicle: saline, higher = longer survival) 102 % of control; (endpoint: median survival time, dose: 4.0 mg/kg/injection, schedule: Q01DX009 (ip), vehicle: Klucel (hydroxypropylcellulose) (HPC), higher = longer survival) 121 % of control; (endpoint: median tumor weight (est.), dose: 0.5 mg/kg/injection, schedule: Q01DX009 (ip), vehicle: saline with Tween-80, higher = larger tumour) 95 % of control; (endpoint: median tumor weight (est.), dose: 1.0 mg/kg/injection, schedule: Q01DX009 (ip), vehicle: saline with Tween-80, higher = larger tumour) 86 % of control. Moreover, the T/C reads like this: (endpoint: median tumor weight (est.), dose: 1.4 mg/kg/injection, schedule: Q01DX011 (ip), vehicle: sodium bicarbonate, higher = larger tumour) 99 % of control; (endpoint: median tumor weight (est.), dose: 2.1 mg/kg/injection, schedule: Q01DX011 (ip), vehicle: sodium bicarbonate, higher = larger tumour) 74 % of control.
For `O=NN(CCCl)C(=O)NC1CCC(C(=O)O)CC1` (stereo not given), the T/C is 97 % of control and 117 % of control (endpoint: median survival time, dose: 3.0 mg/kg/injection, schedule: Q01DX001 (ip), vehicle: saline with Tween-80, higher = longer survival); 116 % of control (endpoint: median survival time, dose: 5.0 mg/kg/injection, schedule: Q01DX001 (ip), vehicle: saline with Tween-80, higher = longer survival); 110 % of control (endpoint: median survival time, dose: 7.0 mg/kg/injection, schedule: Q01DX001 (ip), vehicle: saline with Tween-80, higher = longer survival); 124 % of control (endpoint: median survival time, dose: 8.0 mg/kg/injection, schedule: Q01DX001 (ip), vehicle: saline with Tween-80, higher = longer survival); 113 % of control (endpoint: median survival time, dose: 11.0 mg/kg/injection, schedule: Q01DX001 (ip), vehicle: saline with Tween-80, higher = longer survival); 121 % of control (endpoint: median survival time, dose: 12.0 mg/kg/injection, schedule: Q01DX001 (ip), vehicle: saline with Tween-80, higher = longer survival). Moreover, the T/C is 111 % of control and 288 % of control and 180 % of control (endpoint: median survival time, dose: 13.0 mg/kg/injection, schedule: Q01DX001 (ip), vehicle: saline with Tween-80, higher = longer survival); 121 % of control (endpoint: median survival time, dose: 17.0 mg/kg/injection, schedule: Q01DX001 (ip), vehicle: saline with Tween-80, higher = longer survival); 206 % of control [middle of 5 runs] (endpoint: median survival time, dose: 20.0 mg/kg/injection, schedule: Q01DX001 (ip), vehicle: saline with Tween-80, higher = longer survival); 109 % of control (endpoint: median survival time, dose: 26.0 mg/kg/injection, schedule: Q01DX001 (ip), vehicle: saline with Tween-80, higher = longer survival); 196 % of control (endpoint: median survival time, dose: 27.0 mg/kg/injection, schedule: Q01DX001 (ip), vehicle: saline with Tween-80, higher = longer survival); 228 % of control and 288 % of control and 219 % of control (endpoint: median survival time, dose: 30.0 mg/kg/injection, schedule: Q01DX001 (ip), vehicle: saline with Tween-80, higher = longer survival).
Take `O=NN(CCCl)C(=O)Nc1cc2c3ccccc3ccc2c2ccccc12`: the T/C under setting [1] was 95 % of control; the T/C under setting [2] is 100 % of control; the T/C (endpoint: median survival time, dose: 12.5 mg/kg/injection, schedule: Q01DX009 (ip), vehicle: Klucel (hydroxypropylcellulose) (HPC), higher = longer survival) is 96 % of control.
In the case of `CN(/N=N/c1nc[nH]c1C(N)=O)C(C)(C)C`, the T/C runs as follows: (endpoint: median survival time, dose: 200.0 mg/kg/injection, schedule: Q01DX009 (ip), vehicle: Klucel (hydroxypropylcellulose) (HPC), higher = longer survival) 109 % of control; (endpoint: median survival time, dose: 400.0 mg/kg/injection, schedule: Q01DX009 (ip), vehicle: Klucel (hydroxypropylcellulose) (HPC), higher = longer survival) 90 % of control.
As to `C/C(=N\N=C(/C)c1ccc(-c2ccccc2)cc1)c1ccc(-c2ccccc2)cc1`, the T/C was 84 % of control (endpoint: mean tumor weight, dose: 25.0 mg/kg/injection, schedule: Q01DX011 (ip), vehicle: saline, higher = larger tumour); 85 % of control under setting [3]; 76 % of control under setting [4]; 46 % of control under setting [5].
With `CC(CCc1cccc2ccccc12)(C(=O)O)C(=O)O`, the T/C runs as follows: (endpoint: mean tumor weight, dose: 50.0 mg/kg/injection, schedule: Q01DX011 (ip), vehicle: acid diluted with saline, higher = larger tumour) 72 % of control; (endpoint: mean tumor weight, dose: 63.0 mg/kg/injection, schedule: Q01DX011 (ip), vehicle: carboxymethylcellulose (CMC), higher = larger tumour) 101 % of control; (endpoint: mean tumor weight, dose: 100.0 mg/kg/injection, schedule: Q01DX011 (ip), vehicle: acid diluted with saline, higher = larger tumour) 85 % of control; (endpoint: mean tumor weight, dose: 200.0 mg/kg/injection, schedule: Q01DX011 (ip), vehicle: acid diluted with saline, higher = larger tumour) 91 % of control; (endpoint: mean tumor weight, dose: 400.0 mg/kg/injection, schedule: Q01DX011 (ip), vehicle: acid diluted with saline, higher = larger tumour) 59 % of control.
In the case of `CC(O)CC1CCCN1C` (stereo not given), the T/C under setting [3] was 208 % of control, the T/C under setting [4] is 103 % of control and the T/C under setting [5] was 179 % of control.
As to `NC(=S)N/N=C\c1ncnc2ccccc12`, the T/C reads like this: (endpoint: median survival time, dose: 1.6 mg/kg/injection, schedule: Q01DX009 (ip), vehicle: Klucel (hydroxypropylcellulose) (HPC), higher = longer survival) 104 % of control; under setting [1], 103 % of control; under setting [2], 96 % of control and 108 % of control.
Regarding `O=NN(CCCl)C(=O)Nc1ncc([N+](=O)[O-])s1`, for the setting “endpoint: median survival time, dose: 154.0 mg/kg/injection, schedule: Q01DX001 (ip), vehicle: other, higher = longer survival”, the T/C was 112 % of control.
Consider `O=C1CCCC2C3CC(CN12)C1CCCCN1C3` (stereo not given), for which the T/C reads like this: (endpoint: mean tumor weight, dose: 22.0 mg/kg/injection, schedule: Q01DX011 (ip), vehicle: carboxymethylcellulose (CMC), higher = larger tumour) 113 % of control; (endpoint: mean tumor weight, dose: 33.0 mg/kg/injection, schedule: Q01DX011 (ip), vehicle: carboxymethylcellulose (CMC), higher = larger tumour) 59 % of control; (endpoint: mean tumor weight, dose: 50.0 mg/kg/injection, schedule: Q01DX011 (ip), vehicle: carboxymethylcellulose (CMC), higher = larger tumour) 78 % of control; (endpoint: mean tumor weight, dose: 75.0 mg/kg/injection, schedule: Q01DX011 (ip), vehicle: carboxymethylcellulose (CMC), higher = larger tumour) 89 % of control.
On to `O=P(O)(NCCCl)NCCCl`, for which the T/C runs as follows: (endpoint: median survival time, dose: 12.5 mg/kg/injection, schedule: Q01DX001 (ip), vehicle: saline, higher = longer survival) 114 % of control and 115 % of control; (endpoint: median survival time, dose: 25.0 mg/kg/injection, schedule: Q01DX001 (ip), vehicle: saline, higher = longer survival) 113 % of control and 114 % of control; (endpoint: median survival time, dose: 100.0 mg/kg/injection, schedule: Q01DX001 (ip), vehicle: saline, higher = longer survival) 200 % of control and 243 % of control.
In the case of `COC12C(COC(=O)NCCO)C3=C(C(=O)C(C)=C(N)C3=O)N1CC1NC12` (stereo not given), the T/C by setting is: (endpoint: median survival time, dose: 3.13 mg/kg/injection, schedule: Q01DX009 (ip), vehicle: Klucel (hydroxypropylcellulose) (HPC), higher = longer survival) 94 % of control; under setting [2], 92 % of control; (endpoint: median survival time, dose: 25.0 mg/kg/injection, schedule: Q01DX009 (ip), vehicle: Klucel (hydroxypropylcellulose) (HPC), higher = longer survival) 94 % of control.

For the origin of these results see PubChem BioAssay AID270 (DTP/NCI, 2004).
